# Test results: patent publication US3954767A, “Piperazine salts of 2,5-dihydroxy benzene sulfonic acid mono- and diesters” (priority 1972, dated 1976)
# Counter-ions that a name gives are not always drawn.
# System: not listed separately
# Assay: Acute toxicity (LD50), mouse, oral, method of Reed and Muench
# Type: in vivo, mouse (albino)
# Conditions: mouse, in vivo, po, Table VI; species and route not printed in table (mouse per b12); read-out: LD50 (medium lethal dose)
# Method: The acute toxicities for the mouse are also very low. The medium lethal dose (LD50) for the mouse was determined according to the modified method of Reed and Muench (Reed L. J. & Muench H., Am. J. Hyg., 27, 493, 1938).
# 1. ACUTE TOXICITY IN THE MOUSE AND RAT
# 18 to 25 gr albino mouse.
# The LD50 was determined according to the method of Reed and Muench. […]
row,SMILES,LD50 [mg/kg]
1,"CC(C)(Oc1ccc(Cl)cc1)C(=O)Oc1ccc(O)c(S(=O)(=O)O)c1 [mono-p-chloro phenoxy isobutyrate of pyridine 2,5-dihydroxy benzene sulfonate]",900
2,O=C(Oc1ccc(OC(=O)c2ccccc2)c(S(=O)(=O)O)c1)c1ccccc1 [morpholine 2.5-dihydroxybenzenesulphonate dibenzoate],4000
3,Cc1ccc(S(=O)(=O)Oc2ccc(O)c(S(=O)(=O)O)c2)cc1 [piperidine 2.5-dihydroxybenzenesulphonate monotosylate],5000

# System: rats treated with Triton WR-1339
# Assay: Hypolipemic action on the rat, Triton WR-1339 method
# Type: in vivo
# Conditions: Table VI; with respect to Triton WR-1339; 2 mMoles/Kg orally
# Method: The above-mentioned Triton WR-1339 method was selected. The total cholesterol, triglycerides and total lipids were determined in the serum. The amount of Triton WR-1339 administered to the animals was 300 mg/kg. The amount of piperazine 2,5-dihydroxy benzene sulfonate mono-tosylate administered was 2 mMoles/Kg orally. The letter P signifies probability.
# The above-mentioned Triton WR-1339 method was selected. The total cholesterol, triglycerides and total lipids were determined in the serum. The results obtained are given in Table V. The amount of Triton WR-1339 administered to the animals was 300 mg/Kg. The amount of the piperazine salt with one mole of the di-0-(p-chloro phenoxy isobutyrate) of 2,5-dihydroxy benzene sulfonic acid administered was 1 mMol/Kg orally. The letter P signifies probability.
# In this Triton WR-1339 method, all the compounds are administered at a dose of 2 mMoles/Kg orally excepted those compounds in which is the residue of p-chlorophenoxy isobutyric acid, which are administered orally at a dose corresponding to 2 mMoles of R per Kg, i.e. the amount used is calculated on the basis of the residue R only.
SMILES,Percentage reduction of lipids: Cholesterol [%],Percentage reduction of lipids: Total Lipids [%],Percentage reduction of lipids: Triglycerides [%]
"O=C(Oc1ccc(OC(=O)c2ccccc2)c(S(=O)(=O)O)c1)c1ccccc1 [piperidine 2,5-dihydroxybenzenesulfonate dibenzoate] [piperidine 2.5-dihydroxybenzenesulphonate dibenzoate]",14,23,19
"O=C(Oc1ccc(OC(=O)c2ccccc2)c(S(=O)(=O)O)c1)c1ccccc1 [morpholine 2,5-dihydroxybenzenesulfonate dibenzoate] [morpholine 2.5-dihydroxybenzenesulphonate dibenzoate]",12,21,17
"O=C(Oc1ccc(OC(=O)c2ccccc2)c(S(=O)(=O)O)c1)c1ccccc1 [sodium 2,5-dihydroxybenzenesulfonate dibenzoate] [sodium 2.5-dihydroxybenzenesulphonate dibenzoate]",12,20,17
"O=C(Oc1ccc(O)c(S(=O)(=O)O)c1)c1cccnc1 [pyridine 2,5-dihydroxybenzene sulfonate mono nicotinate]",17,25,24
"O=C(Oc1ccc(OC(=O)c2ccccc2)c(S(=O)(=O)O)c1)c1ccccc1 [diethylamine 2,5-dihydroxybenzenesulfonate dibenzoate] [diethylamine 2.5-dihydroxybenzensulphonate dibenzoate]",12,22,14
"Cc1ccc(S(=O)(=O)Oc2ccc(O)c(S(=O)(=O)O)c2)cc1 [piperidine bis(2,5-dihydroxybenzenesulfonate monotosylate)] [piperidine 2.5-dihydroxybenzenesulphonate monotosylate]",15,33,26
"Cc1ccc(S(=O)(=O)Oc2ccc(O)c(S(=O)(=O)O)c2)cc1 [sodium 2,5-dihydroxybenzenesulfonate monotosylate] [sodium 2,5-dihydroxy benzene sulfonate mono-tosylate]",10,39,36
"Cc1ccc(S(=O)(=O)Oc2ccc(O)c(S(=O)(=O)O)c2)cc1 [piperazine bis(2,5-dihydroxybenzenesulfonate monotosylate)] [piperazine bis(2.5-dihydroxybenzenesulphonate monotosylate)]",11,17,25
"O=C(Oc1ccc(OC(=O)c2ccccc2)c(S(=O)(=O)O)c1)c1ccccc1 [piperazine 2,5-dihydroxybenzenesulfonate dibenzoate] [piperazine 2.5-dihydroxybenzenesulphonatedibenzoate]",13,20,18
"O=C(Oc1ccc(OC(=O)c2ccccc2)c(S(=O)(=O)O)c1)c1ccccc1 [piperazine bis(2,5-dihydroxybenzene sulfonate dibenzoate)] [piperazine bis(2.5-dihydroxybenzenesulphonate dibenzoate)]",9,16,14

# Same assay, conditions: Table VI; with respect to Triton WR-1339; orally, 2 mMoles of R (p-chlorophenoxy isobutyric acid residue) per Kg
SMILES,Percentage reduction of lipids: Cholesterol [%],Percentage reduction of lipids: Total Lipids [%],Percentage reduction of lipids: Triglycerides [%]
"CC(C)(Oc1ccc(Cl)cc1)C(=O)Oc1ccc(O)c(S(=O)(=O)O)c1 [calcium salt of mono-O-(p-chloro phenoxy isobutyrate) of 2,5] [calcium salt of mono-O-(p-chlorophenoxy isobutyrate) of 2,5-dihydroxybenzene sulfonic acid]",27,26,40
"CC(C)(Oc1ccc(Cl)cc1)C(=O)Oc1ccc(OC(=O)C(C)(C)Oc2ccc(Cl)cc2)c(S(=O)(=O)O)c1 [calcium salt of di-O-(p-chloro phenoxy isobutyrate) of 2,5-d] [calcium salt of di-O-(p-chlorophenoxy isobutyrate) of 2,5-dihydroxy benzene sulfonic acid]",27,29,33
"CC(C)(Oc1ccc(Cl)cc1)C(=O)Oc1ccc(O)c(S(=O)(=O)O)c1 [pyridine 2,5-dihydroxybenzenesulfonate mono-p-chloro phenoxy] [mono-p-chloro phenoxy isobutyrate of pyridine 2,5-dihydroxy benzene sulfonate]",16,23,27
"CC(C)(Oc1ccc(Cl)cc1)C(=O)Oc1ccc(O)c(S(=O)(=O)O)c1 [magnesium salt of mono-O-(p-chloro phenoxy isobutyrate) of 2] [magnesium salt of mono-O-(p-chlorophenoxy isobutyrate) of 2,5-dihydroxy benzene sulfonic acid]",19,28,44
"CC(C)(Oc1ccc(Cl)cc1)C(=O)Oc1ccc(O)c(S(=O)(=O)O)c1 [di-salt of piperazine of mono-O-(p-chloro phenoxy isobutyrat] [di-salt of piperazine of mono-O-(p-chlorophenoxy isobutyrate) of 2,5-dihydroxy benzene sulfonic acid]",16,26,31
"CC(C)(Oc1ccc(Cl)cc1)C(=O)Oc1ccc(OC(=O)C(C)(C)Oc2ccc(Cl)cc2)c(S(=O)(=O)O)c1 [piperazine mono-salt of di-O-(p-chloro phenoxy isobutyrate) ] [piperazine mono-salt of di-O-(p-chlorophenoxy isobutyrate) of 2,5-dihydroxy benzene sulfonic acid]",25,28,49
"CC(C)(Oc1ccc(Cl)cc1)C(=O)Oc1ccc(OC(=O)C(C)(C)Oc2ccc(Cl)cc2)c(S(=O)(=O)O)c1 [pyridine salt of di-O-(p-chloro phenoxy isobutyrate) of 2,5-] [pyridine salt of the di-O-(p-chlorophenoxy isobutyrate) of 2,5-dihydroxy benzene sulfonic acid]",20,31,32
"CC(C)(Oc1ccc(Cl)cc1)C(=O)Oc1ccc(O)c(S(=O)(=O)O)c1 [mono-salt of piperazine of mono-O-(p-chloro phenoxy isobutyr] [mono-salt of piperazine of mono-O-(p-chlorophenoxy isobutyrate) of 2,5-dihydroxy benzene sulfonic acid]",9,25,49
"CC(C)(Oc1ccc(Cl)cc1)C(=O)Oc1ccc(OC(=O)C(C)(C)Oc2ccc(Cl)cc2)c(S(=O)(=O)O)c1 [piperazine di-salt of di-O-(p-chloro phenoxy isobutyrate) of] [piperazine di-salt of di-O-(p-chlorophenoxy isobutyrate) of 2,5-dihydroxy benzene sulfonic acid]",29,37,21

# Same assay, conditions: Table VI; with respect to Triton WR-1339; orally, 2 mMoles of R (p-chlorophenoxy isobutyric acid residue) per Kg; dihydrate
SMILES,Percentage reduction of lipids: Cholesterol [%],Percentage reduction of lipids: Total Lipids [%],Percentage reduction of lipids: Triglycerides [%]
"CC(C)(Oc1ccc(Cl)cc1)C(=O)Oc1ccc(O)cc1S(=O)(=O)O [magnesium 2-O-(p-chlorophenoxyisobutyryl) 2,5-dihydroxybenzene sulfonate dihydrate]",18,27,21

# Same assay, conditions: Triton 300 mg/Kg + compound 1 mMol/Kg orally; 0,0025<P<0,005
row,SMILES,total cholesterol
1,"CC(C)(Oc1ccc(Cl)cc1)C(=O)Oc1ccc(OC(=O)C(C)(C)Oc2ccc(Cl)cc2)c(S(=O)(=O)O)c1 [piperazine mono-salt of di-O-(p-chloro phenoxy isobutyrate) ] [piperazine mono-salt of di-O-(p-chlorophenoxy isobutyrate) of 2,5-dihydroxy benzene sulfonic acid]","212,5 mg % ml of plasma"

# Same assay, conditions: Triton 300 mg/Kg + compound 1 mMol/Kg orally; 0,005<P<0,010
SMILES,total lipids,triglycerides
"CC(C)(Oc1ccc(Cl)cc1)C(=O)Oc1ccc(OC(=O)C(C)(C)Oc2ccc(Cl)cc2)c(S(=O)(=O)O)c1 [piperazine mono-salt of di-O-(p-chloro phenoxy isobutyrate) ] [piperazine mono-salt of di-O-(p-chlorophenoxy isobutyrate) of 2,5-dihydroxy benzene sulfonic acid]","1503,8 mg % ml of plasma","572,5 mg % ml of plasma"
